Source: patent US7189751B2, “Oxa(thia)zolidine compounds, process for preparation thereof and anti-inflammatory agents” (Nippon Soda Co., Ltd., priority 2001, dated 2007)

How the values were obtained:
[1] = biological target: T1, IV-cPLA(2) in activated U937 cells (Homo sapiens, UniProt P47712); assay: PLA(2) activity: hydrolysis of bis-BODIPY FL C11-PC in TPA/A23187-activated U937 cells; format: cell-based; conditions: U-937
T1 sequence (P47712 1-749): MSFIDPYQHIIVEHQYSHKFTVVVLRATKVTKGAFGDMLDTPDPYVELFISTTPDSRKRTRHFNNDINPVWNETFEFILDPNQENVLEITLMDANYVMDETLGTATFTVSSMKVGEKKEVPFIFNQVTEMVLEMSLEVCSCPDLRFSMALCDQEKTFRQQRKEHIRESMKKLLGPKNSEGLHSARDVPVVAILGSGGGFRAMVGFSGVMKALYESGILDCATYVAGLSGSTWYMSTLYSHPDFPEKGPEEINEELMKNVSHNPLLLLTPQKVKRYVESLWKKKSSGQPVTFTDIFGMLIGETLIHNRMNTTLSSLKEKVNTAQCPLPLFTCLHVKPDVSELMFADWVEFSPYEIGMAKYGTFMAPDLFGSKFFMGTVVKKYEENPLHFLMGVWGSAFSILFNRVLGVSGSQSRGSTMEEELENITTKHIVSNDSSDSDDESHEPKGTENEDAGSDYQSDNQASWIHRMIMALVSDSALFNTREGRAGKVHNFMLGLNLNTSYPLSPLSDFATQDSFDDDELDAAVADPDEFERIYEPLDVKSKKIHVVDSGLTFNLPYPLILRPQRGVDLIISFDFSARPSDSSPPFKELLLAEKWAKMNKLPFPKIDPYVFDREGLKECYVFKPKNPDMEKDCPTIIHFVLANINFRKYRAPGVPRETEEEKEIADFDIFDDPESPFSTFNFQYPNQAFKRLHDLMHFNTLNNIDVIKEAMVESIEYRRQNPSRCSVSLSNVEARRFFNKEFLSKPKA
Procedure: The PLA(2) activity was measured by quantitatively analyzing the fluorescent product of hydrolysis from 1,2-bis-(4,4-difluoro-5,7-dimethyl-4-bora-3a,4a-diaza-s-indecene-3-undecanoyl)-sn-glycero-3-phosphocholine (hereinafter referred to bis-BODIPY®FL C11-PC, Molecular probes, Inc., B-7701) using activated U937 cells (human monoblastic lymphoma cell line) by inflammatory stimulus (Meshulam, T. et al., The journal of Biological Chemistry 267 (30): 21465–21470 (1992); and Solito, E. et al., British Journal of Pharmacology 124: 1675–1683(1998).). The substrate bis-BODIPY®FL C11-PC is incorporated into cellular membranes, the proximity of the BODIPY®FL fluorophores on adjacent phospholipid acyl chains causes fluorescence self-quenching. Separation of the fluorophores upon hydrolytic cleavage of one of the acyl chains by PLA(1) or the PLA(2) results in increased fluorescence. […]
The test compound was dissolved with DMSO at 30 mM, and the solution diluted with either DMSO or the Assay medium before addition into the reaction mixture. […] The increased fluorescence of the hydrolysis product by the enzyme was determined by measuring the fluorescence emission intensity at 535 nm with excitation at 485 nm from the top side of each plate at 37° C., using a Multi Functional Microplate Reader SPECTRA FLUOR PLUS (TECAN Austria GmbH). […]

[2] = tested on: Mouse Ear Edema Induced by TPA; assay: Mouse ear edema induced by TPA; format: in vivo; conditions: for Ear Edema Inhibition (%): topical, ICR male mouse, 6 hours after TPA
Procedure: Pharmacological Test Example 2: Mouse Ear Edema Induced by TPA
This test was carried out referring to the method of Carlson, R. P. et al. (Agents and Actions, 17(2): 197–204 (1985).) and the method of Chang, J. (European Journal of Pharmacology, 142: 197–205 (1987).). More specifically, 5 μg/20 μL of TPA (Sigma Chemical Co.), dissolved with ethanol, was topically applied to the anterior and posterior surfaces of the right ear of an ICR-strain male mouse (6–7 weeks old). 6 hours later, the thickness of each ear at the particular part was respectively measured three times using a digimatic micrometer to calculate the mean value. Ear edema was determined by subtracting the mean thickness of the left ear as without treatment from that of the right ear as TPA-applied. Topical application activity was evaluated by applying an acetone solution of the compound of the present invention or 0.1% Tween 80/acetone solution thereof similarly to the anterior and posterior surfaces of the right ear 30 min. before and 15 min. after the TPA-application. […] Oral administration activity was evaluated by administrating 0.2% Tween 80 suspension of the compound of the present invention forcibly and perorally to the mouse an hour prior to the TPA-application. As the positive control, 100 mg/kg of Hydrocortisone (Sigma Chemical Co., H 4001) suspension was applied to the mouse similarly as for the compound of the present invention.

[3] = tested on: acetic acid induced writhes; assay: Acetic acid writhing; format: in vivo, mouse
Procedure: Pharmacological Test Example 4: Acetic Acid Wirthing
This test was carried out referring to the method of Inoue, K., Motonaga, A. & Nishimura, T (Arzneimittel Forshung/Drug Research, 41 (1): 235–239 (1991)). More specifically, 7.5 mL/kg of 0.9% acetic acid solution was injected intraperitoneally into an ICR-strain male mouse (5 to 7 weeks old), and the induced writhes (characteristic behaviors of convulsive contracting the abdomen, twisting the body and/or extending the legs) were observed. Number of writhes of each mouse was measured during 10 to 20 min. period after acetic acid administration. […] The analgesic activity of the compounds according to the present invention was evaluated on the basis of the degree of inhibiting the number writhes by the administration of the compounds. As the positive control, indomethacin or aspirin was administrated. The analgesic activity of the compounds according to the present invention measured in this test were exemplified in Table 7.

## Cc1ccc(S(=O)(=O)C(C#N)=C2N[C@@H](C)[C@@H](c3ccc(Cl)cc3)O2)cc1 (relative stereo) [Compound 1-41, Cis-5-(4-chlorophenyl)-4-methyl-2-(1-(4-methylphenylsulfonyl)-1-cyanomethylene)-oxazolidine]
[1]
  inhibition at 0.1 µM: 100%
[2]; 1 mg/40 μL/ear × 2
  Ear Edema Inhibition (%): 80.5%
[3]; i.p. 1 mg/kg, 30 min before, vehicle i.p. 25.2 ± 2.2
  Number of writhes (Mean ± S.E.): 4.0 ± 1.9
[3]; p.o. 10 mg/kg, 120 min before, vehicle p.o. 23.5 ± 3.1
  Number of writhes (Mean ± S.E.): 1.3 ± 0.8

## CC(=O)Oc1ccccc1C(=O)O [Aspirin, aspirin]
[3]; i.p. 30 mg/kg, 30 min before, vehicle i.p. 25.2 ± 2.2
  Number of writhes (Mean ± S.E.): 9.5 ± 2.0
[3]; p.o. 100 mg/kg, 60 min before
  Number of writhes (Mean ± S.E.): 9.5 ± 1.9

## CC(=O)OCC(=O)[C@@]1(O)[C@H](C)C[C@H]2[C@@H]3CCC4=CC(=O)C=C[C@]4(C)[C@@]3(F)[C@@H](O)C[C@@]21C [DEX-Ac, Dexamathasone-21-acetate]
[2]; mice of the TPA ear edema test
  body weight after 24 hours: reduced
[2]; 1 mg/20 μL/ear × 2
  Ear Edema Inhibition (%): 79.6%

## COc1ccc2c(c1)c(CC(=O)O)c(C)n2C(=O)c1ccc(Cl)cc1 [Indomethacin, indomethacin]
[2]; mice of the TPA ear edema test
  intoxicated symptoms: showed intoxicated symptoms
  body weight after 24 hours: reduced
[2]; 3 mg/40 μL/ear × 2
  Ear Edema Inhibition (%): 63.5%
[3]; i.p. 3 mg/kg, 30 min before, vehicle i.p. 25.2 ± 2.2
  Number of writhes (Mean ± S.E.): 13.8 ± 3.0
[3]; i.p. 10 mg/kg, 30 min before, vehicle i.p. 25.2 ± 2.2
  Number of writhes (Mean ± S.E.): 4.8 ± 0.9
[3]; p.o. 3 mg/kg, 60 min before
  Number of writhes (Mean ± S.E.): 6.8 ± 2.0
